{
  "source": "patent US20060046968A1",
  "about": "“Prodrug substituted benzoxazoles as estrogenic agents” (priority 2004, published 2006)",
  "key": {"[1]": {"test_system": "Lewis rats", "assay": "Lewis rat adjuvant-induced arthritis, treatment protocol: tarsal joint histology (synovitis, Mankin)", "assay_type": "in vivo", "details": "50 mg/kg, tarsal joints"}, "[2]": {"assay": "Cytosolic incubation in the presence of PAPS (sulfation), human", "assay_type": "in vitro ADME", "details": "100 μM, 37° C., 60 mins, with PAPS; human liver cytosol", "experimental": "These pilot incubations (1.0 mL incubation volume) were conducted using a substrate concentration of 100 μM ERB-041 at 37° C. for 60 mins. Incubations were terminated by the addition of an equal volume of chilled acetonitrile. Reserved phase-HPLC was utilized for all metabolite analysis. To confirm the formation of glucuronide and sulfate conjugates of ERB-041 in pilot scale incubations, HPLC analysis was performed using an Agilent 1100 LC system equipped with a diode array detector (Agilent Technologies, Wilmington, Del.). […] Rat liver and human liver cytosol incubations produced similar profiles. […] Further confirmation of the identity of the isolated metabolites […] and M9 from the large-scale incubations was obtained using LC-MS analysis (ESI, negative ionization). In the large-scale incubation, approximately 23% of ERB-041 was converted to the two sulfate conjugates. Separation of the two sulfate metabolites was achieved using gradient solvent system C described supra."}, "[3]": {"assay": "Cytosolic incubation in the presence of PAPS (sulfation), rat", "assay_type": "in vitro ADME", "experimental": "These pilot incubations (1.0 mL incubation volume) were conducted using a substrate concentration of 100 μM ERB-041 at 37° C. for 60 mins. Incubations were terminated by the addition of an equal volume of chilled acetonitrile. Large-scale incubations (a total of 60 incubations @ 1.0 mL incubation volume) to generate sufficient quantities of the sulfate metabolites for structure elucidation were subsequently conducted as described above at 37° C. for 60 mins. Appropriate substrate controls and incubations without addition of PAPS were conducted. Additional incubations (a total of 120 @ 2.0 mL incubation volume, 50 μM ERB-041) were also conducted in a similar manner to isolate sufficient amounts of ERB-041-sulfates to enable full structural identification. Reserved phase-HPLC was utilized for all metabolite analysis. To confirm the formation of glucuronide and sulfate conjugates of ERB-041 in pilot scale incubations, HPLC analysis was performed using an Agilent 1100 LC system equipped with a diode array detector (Agilent Technologies, Wilmington, Del.). […] Rat liver and human liver cytosol incubations produced similar profiles. […] Further confirmation of the identity of the isolated metabolites […] and M9 from the large-scale incubations was obtained using LC-MS analysis (ESI, negative ionization). […]"}},
  "data": [
    {"smiles": "C=Cc1cc(O)cc2nc(-c3ccc(O)c(F)c3)oc12", "note": "[Example 24, 2-(3-FLUORO-4-HYDROXYPH ENYL)-7-VI NYL-1,3-BENZOXAZOL-5-OL]", "values": [
      {"measurement": "Cartilage Cells (0-3), mean ± SD", "setting": "[1]", "result": "0.83 ± 0.75"},
      {"measurement": "Cartilage Structure (0-6), mean ± SD", "setting": "[1]", "result": "1.58 ± 0.49"},
      {"measurement": "Fibroplasia (0-3), mean ± SD", "setting": "[1]", "result": "0.42 ± 0.80"},
      {"measurement": "Inflammatory Cells (0-3), mean ± SD", "setting": "[1]", "result": "1.33 ± 0.41"},
      {"measurement": "Pannus (0-1), mean ± SD", "setting": "[1]", "result": "0.08 ± 0.20"},
      {"measurement": "Saffranin-O/Fast Green Staining (0-4), mean ± SD", "setting": "[1]", "result": "1.25 ± 0.69"},
      {"measurement": "Tidemark Integrity (0-1)", "setting": "[1]", "result": 0},
      {"measurement": "Total Mankin Score (0-14), mean ± SD", "setting": "[1]", "result": "3.67 ± 1.86"},
      {"measurement": "Total Synovitis Score (0-10), mean ± SD", "setting": "[1]", "result": "3.25 ± 1.54"},
      {"measurement": "Metabolites detected", "setting": "[2]", "result": "two metabolites (M9A and M9) were detected"},
      {"measurement": "Metabolites detected", "setting": "[3]; 100 μM, 37° C., 60 mins, with PAPS, rat liver cytosol", "result": "two metabolites (M9A and M9) were detected"},
      {"measurement": "converted to the two sulfate conjugates", "setting": "[3]; large-scale incubation with PAPS", "result": "approximately 23%"}
    ]}
  ]
}
